Reference: patent US20120016019A1, “PHARMACEUTICAL COMPOSITION FOR TREATING OR PREVENTING CANCER” (priority 2010, published 2012)
Where “and” joins values, the source holds several entries; their conditions need not be identical. Equal values may be shown once. Read-outs that look alike come from different tables or passages of the source.

Key:
RKO = assay: Cell counts, RKO; assay type: cell-based
Protocol: As a result, LC-50 curves were generated in the 1st week.
In the 2nd plate, 7 d of the 1st week (LC-50) is the same as 0 h of the 2nd week (recovery).
At 0 h of the 2nd week, medium was exchanged with untreated medium for the remainder of the experiment. The untreated controls were not measured in the 2nd week (recovery) due to overconfluence by the end of the 1st week. As a result, Recovery curves were generated in the 2nd week.

HCC 1419 = assay: XTT cell viability assay, HCC 1419; details: for The absorbance, Mean value / The absorbance / The absorbance, group - Blank: XTT 500 nm; for The absorbance: single wells
Protocol: (§1) Cancer cell lines HCC 1419, MCF-7, MDA-MB-468, SKBR3, PC3, HT1299, Saos-2, C-6, AsPc, MDA-MB-231, RKO, HeLa and TT, and normal cell lines HME 50 HT, BJ and CCD-1074sk were tested for changes in metabolism (XTT assay) and cell death (cell counts).
(§2) Cells were plated into 48-well Corning CellBind™ plates at densities of 20,000 cells for normal cells and 10,000˜20,000 cells for cancer cells. 24 to 48 h after plating, cells were treated with the composition according to the invention at concentrations of 4.5e-2M. The first time point treated with the composition of the invention is 0 h. At 3 days after the first treatment with the composition of the invention, medium was changed and the composition of the invention at the same concentrations were added to the cultured cells.
(§3) The XTT assay is an accepted analysis technique for viability and cytotoxicity of anticancer drugs or other pharmaceutical compositions. Cells were seeded in a 96-well tissue culture plate at a density of 10,000 cells for normal cells and 5,000 cells for cancer cells. After incubation period, the formazan dye formed was quantitated using an ELISA reader. The optimal wavelength used in experiments was 500 nm, and it was measured at 0 h, 12 h, 24 h, 48 h, 4 d and 7 d, respectively. The obtained values were generated using the software SoftMax Pro 4.8.
(§4) The cell viability was calculated according to the manufacturer's instructions as follows (the term “blank” means XTT in medium only):
(§5) Cellular cytotoxicity was calculated according to the manufacturer's instructions as follows: […]

C-6 = details: C-6
Protocol: as §1, §2, §3, §4, §5

[1] = HCC 1419, 1st week (LC50), 24 h
[2] = HCC 1419, 1st week (LC50), 48 h
[3] = HCC 1419, 2nd week (recovery), 0 h
[4] = HCC 1419, 2nd week (recovery), 48 h
[5] = HCC 1419, 2nd week (recovery), 4 d

Structure (SMILES): CC(=O)O[C@H]1C(=O)[C@@]2(C)[C@H]([C@H](OC(=O)c3ccccc3)[C@]3(O)C[C@H](OC(=O)[C@H](O)[C@@H](NC(=O)c4ccccc4)c4ccccc4)C(C)=C1C3(C)C)[C@]1(OC(C)=O)CO[C@@H]1C[C@@H]2O [Taxol]
- cell counts (RKO; 1st week (LC50), 0 h): 48000 and 49000 and 54000
- cell counts, Mean value (RKO; 1st week (LC50), 0 h): 50333
- cell counts (RKO; 1st week (LC50), 24 h): 101600 and 98000 and 99800
- cell counts, Mean value (RKO; 1st week (LC50), 24 h): 99800
- cell counts, Mean value (RKO; 1st week (LC50), 48 h): 78733
- cell counts (RKO; 1st week (LC50), 4 d): 36000
- cell counts, Mean value (RKO; 1st week (LC50), 4 d): 36000
- cell counts (RKO; 1st week (LC50), 7 d): 38600 and 25400 and 22800
- cell counts, Mean value (RKO; 1st week (LC50), 7 d): 28933
- cell counts (RKO; 2nd week (recovery), 0 h): 57000 and 58000 and 53000
- cell counts, Mean value (RKO; 2nd week (recovery), 0 h): 56000
- cell counts (RKO; 2nd week (recovery), 24 h): 26000 and 31000 and 39000
- cell counts, Mean value (RKO; 2nd week (recovery), 24 h): 32000
- cell counts (RKO; 2nd week (recovery), 48 h): 35000 and 38000 and 30000
- cell counts, Mean value (RKO; 2nd week (recovery), 48 h): 34333
- cell counts (RKO; 2nd week (recovery), 4 d): 39000 and 31000 and 26000
- cell counts, Mean value (RKO; 2nd week (recovery), 4 d): 32000
- cell counts, Mean value (RKO; 2nd week (recovery), 7 d): 35000
- The absorbance, Mean value (HCC 1419; HCC 1419, 1st week (LC50), 0 h): 2.5924
- The absorbance (HCC 1419; HCC 1419, 1st week (LC50), 0 h): 2.5534 and 2.6558 and 2.5679
- The absorbance, group - Blank (HCC 1419; HCC 1419, 1st week (LC50), 12 h): 2.0317
- The absorbance, Mean value (HCC 1419; [1]): 2.8401
- The absorbance, group - Blank (HCC 1419; [1]): 2.5035
- The absorbance (HCC 1419; [1]): 2.9427 and 2.856 and 2.7216
- The absorbance, Mean value (HCC 1419; [2]): 3.4706
- The absorbance, group - Blank (HCC 1419; [2]): 3.1340
- The absorbance (HCC 1419; [2]): 3.7945 and 2.9086 and 3.7087
- The absorbance, Mean value (HCC 1419; HCC 1419, 1st week (LC50), 4 d): 2.6666
- The absorbance (HCC 1419; HCC 1419, 1st week (LC50), 4 d): 2.6667 and 2.7014 and 2.6316
- The absorbance, Mean value (HCC 1419; HCC 1419, 1st week (LC50), 7 d): 2.5386
- The absorbance (HCC 1419; HCC 1419, 1st week (LC50), 7 d): 2.6877 and 2.5421
- The absorbance, Mean value (HCC 1419; [3]): 2.4911
- The absorbance (HCC 1419; [3]): 2.7348
- The absorbance (HCC 1419; HCC 1419, 2nd week (recovery), 24 h): 2.4388
- The absorbance, Mean value (HCC 1419; [4]): 2.6525
- The absorbance, group - Blank (HCC 1419; [4]): 2.4436
- The absorbance (HCC 1419; [4]): 2.6611 and 2.6375 and 2.6588
- The absorbance, Mean value (HCC 1419; [5]): 2.6058
- The absorbance (HCC 1419; [5]): 2.7024 and 2.5033 and 2.6116
- The viability (HCC 1419; HCC 1419, XTT, 1/100 of %, 2nd week (recovery), 48 h): 0.8937
- The viability (HCC 1419; human, 12 h, 220 nM): 0.7658
- The viability (HCC 1419; human, 48 h, 220 nM): 1.1461
- The viability (HCC 1419; human, 7 d, 220 nM): 0.9883
- The absorbance (C-6; 1st week (LC50), 0 h): 2.6477 and 2.6197 and 2.482
- The absorbance, Mean value (C-6; 1st week (LC50), 0 h): 2.5831
- The absorbance, group - Blank (C-6; 1st week (LC50), 0 h): 2.0608
- The absorbance (C-6; 1st week (LC50), 12 h): 2.851 and 2.8475 and 2.6595
- The absorbance, Mean value (C-6; 1st week (LC50), 12 h): 2.7860
- The absorbance, group - Blank (C-6; 1st week (LC50), 12 h): 2.2637
- The absorbance (C-6; 1st week (LC50), 24 h): 2.6263 and 2.6408 and 2.7106
- The absorbance, Mean value (C-6; 1st week (LC50), 24 h): 2.6592
- The absorbance, group - Blank (C-6; 1st week (LC50), 24 h): 2.1369
- The absorbance (C-6; 1st week (LC50), 48 h): 2.5907 and 2.3173 and 2.5122
- The absorbance, Mean value (C-6; 1st week (LC50), 48 h): 2.4734
- The absorbance, group - Blank (C-6; 1st week (LC50), 48 h): 1.9511
- The absorbance (C-6; 1st week (LC50), 4 d): 3.4031 and 2.4181 and 2.3613
- The absorbance, Mean value (C-6; 1st week (LC50), 4 d): 2.7275
- The absorbance, group - Blank (C-6; 1st week (LC50), 4 d): 2.2052
- The absorbance (C-6; 1st week (LC50), 7 d): 2.334 and 2.3441 and 2.3017
- The absorbance, Mean value (C-6; 1st week (LC50), 7 d): 2.3266
- The absorbance, group - Blank (C-6; 1st week (LC50), 7 d): 1.8043
- The absorbance (C-6; 2nd week (recovery), 0 h): 2.7171 and 2.4409 and 2.6926
- The absorbance, Mean value (C-6; 2nd week (recovery), 0 h): 2.6169
